This is an account of results in ChEMBL document CHEMBL1221363, “Cytotoxicity of new pyrazino[1,2-b]isoquinoline and 6,15-iminoisoquino[3,2-b]3-benzazocine compounds” (2010).

The structures appear in SMILES notation.

Common to all, as to format: functional
One experiment relates to A549. As to the kind of experiment: Cytotoxicity against human A549 cells after 48 hrs by SRB assay. Particulars: A549, 48 h.
In the next experiment the test system is MDA-MB-231. As to the kind of experiment: Cytotoxicity against human MDA-MB-231 cells after 48 hrs by SRB assay. Particulars: MDA-MB-231, 48 h; for CC50: read-out: LC50 (the source's name).
In a further experiment the test system is HT-29. As to the kind of experiment: Cytotoxicity against human HT-29 cells after 48 hrs by SRB assay. The settings on record: HT-29, 48 h.

For the compound `COc1c(C)c(OC)c(OC)c2c1C[C@H]1CN(Cc3ccc4ccccc4c3[N+](=O)[O-])CC(=O)N1[C@H]2COCc1ccccc1` (relative stereo), in the experiment on A549, the concentration for 50% growth inhibition (GI50) was more than 16.3 µM, the LC50 (concentration causing 50% net cell kill) is more than 16.3 µM and the TGI is more than 16.3 µM. In the experiment on MDA-MB-231, it took 8.01 µM to inhibit growth by half (GI50), the TGI was more than 16.3 µM and the CC50 is more than 16.3 µM. In the experiment on HT-29, this compound came in with a GI50 of 4.06 µM, an LC50 of 17.8 µM and a TGI of 9.48 µM.
Consider `COc1c(C)c(OC)c(OC)c2c1C[C@H]1[C@@H]3N[C@@H](Cc4ccccc43)C(=O)N1[C@H]2COC(=O)c1cccc2ccccc12` (relative stereo), for which, in the experiment with A549, the GI50 amounted to 13.3 µM, the LC50 (concentration causing 50% net cell kill) is more than 17.3 µM and the TGI is more than 17.3 µM. In the experiment on MDA-MB-231, the GI50 was found to be 8.64 µM, the concentration for total growth inhibition (TGI) was more than 17.3 µM and the CC50 is more than 17.3 µM. For the same compound, in the experiment on HT-29, the concentration for 50% growth inhibition (GI50) was more than 18.9 µM, the 50% lethal concentration (LC50) was more than 18.9 µM and the TGI was more than 18.9 µM.
As for `COc1c(C)c(OC)c(OC)c2c1C[C@H]1[C@@H]3c4c(c(OC)c(C)c(OC)c4OC)C[C@H](C(=O)N1C2COC(=O)c1cccc2ccccc12)N3C` (relative stereo), in the experiment on A549, the 50% growth inhibitory concentration (GI50) was determined as 6.17 µM, the LC50 (concentration causing 50% net cell kill) was more than 14.4 µM and the TGI was more than 14.4 µM. In the experiment on MDA-MB-231, the GI50 worked out at 7.46 µM, the total growth inhibition concentration (TGI) was more than 14.4 µM and the CC50 was more than 14.4 µM. Further, in the experiment on HT-29, growth was halved (GI50) at 6.88 µM, the LC50 was more than 14.6 µM and the total growth inhibition concentration (TGI) was more than 14.6 µM.
Take `COc1c(C)c(OC)c(OC)c2c1C[C@H]1[C@H]3c4ccccc4C[C@@H]([C@H](C#N)N1[C@H]2CO)N3C` (relative stereo): in the experiment with A549, the 50% growth inhibitory concentration (GI50) was 5.78 µM, the LC50 (concentration causing 50% net cell kill) amounted to 18.7 µM and the concentration for total growth inhibition (TGI) turned out to be 12 µM. Besides, in the experiment with MDA-MB-231, the concentration for 50% growth inhibition (GI50) was determined as 7.65 µM, the concentration for total growth inhibition (TGI) is 12.9 µM and the CC50 was 18.7 µM. Besides, in the experiment with HT-29, halving of growth (GI50) required 5.17 µM, the LC50 was more than 14.4 µM and the TGI was more than 14.4 µM.
As for `COc1cc2c(cc1O)CCN[C@]21CS[C@@H]2c3c(OC(C)=O)c(C)c4c(c3[C@H](COC1=O)N1[C@@H]2[C@H]2c3c(cc(C)c(OC)c3O)C[C@@H]([C@@H]1O)N2C)OCO4` [TRABECTEDIN], in the experiment with A549, the GI50 was determined as 0.00281 µM and the TGI amounted to 0.00315 µM. Also, in the experiment with MDA-MB-231, the concentration for 50% growth inhibition (GI50) turned out to be 0.000396 µM, the total growth inhibition concentration (TGI) worked out at 0.00101 µM and the CC50 came out at 0.0017 µM. In the experiment on HT-29, this compound returned a concentration for 50% growth inhibition (GI50) of 2.47 µM and a TGI of 2.93 µM.
